From patent US10689362B2, “Quinoxaline compounds as type III receptor tyrosine kinase inhibitors” (Development Center for Biotechnology, priority 2016, dated 2020)

How the values were obtained:
FLT3 kinase = FLT3 kinase (Homo sapiens (Human), UniProt P36888); test: FLT3 kinase assay (radiometric); format: biochemical
Method: Inhibition of FLT3 kinase activity by a test compound disclosed herein was estimated by radiometric assay. Standard assay conditions were 5 ng of recombinant FLT3 (Thermo Fisher) with 2 μg of substrate Poly-(Glu 4:Tyr 1) (sigma) in the assay buffer in kinase reaction buffer (10 mM MOPS pH 7.0, 0.21 mM EDTA, 0.5% glycerol, 0.001% Brij-35, 0.01 2-mercaptoehtanol, 1 mg/ml BSA, MgCl2 10 mM, 10 μM ATP, 0.1 μCi per well [^33P]-ATP, in the presence of test compound (diluted in final concentration of 4% DMSO) or DMSO control, with a final volume of 25 μl for 60 minutes at 30° C. The reaction was stopped by adding 5 μl of 3% phosphoric acid solution. Total reaction solution was then harvested onto a filter plate (UniFilter-96 GF/B, PerkinElmer), and washed 20 times for 5 min with dH2O. 30 μl of MicroScint™-20 Cocktail (PerkinElmer) was added to dried plate. The plate was sealed and counted using a TopCount scintillation detector (PerkinElmer). […] The IC50 values of quinoxaline compounds of this invention against FLT3 kinase were determined using the GraphPad Prism 5 software.
(§1) The IC50 values for selected quinoxaline compounds of this invention against CSF-1R, c-KIT, FLT3, and PDGFRβ are summarized in Table 3.

[1] = test system: MV4-11 human acute myeloid leukemia cell with FLT3-ITD mutation; test: MV4-11 cell proliferation assay (CellTiter-96); format: cell-based; conditions: Cytotoxicity, MV4-11 cells, 72 hours
Method: (§2) Inhibition of cell growth by compounds was measured using CellTiter™-96 assay. The cytotoxicity of compounds was evaluated in CSF-1-dependent M-NFS-60 mouse myeloid leukemia cell, FLT3 signal addicted MV4-11 human acute myeloid leukemia cell with FLT3-ITD mutation, c-KIT signal addicted Kasumi-1 human acute myeloid leukemia cell with c-KIT N822K activating mutation, and THP-1 human acute monocytic leukemia cell harboring NRAS G12D mutation.
(§3) The compounds disclosed herein were tested in MV4-11 cell proliferation assay to determine their cellular potency against FLT3 kinase. MV4-11 human acute myeloid leukemia cells harbor ligand-independent FLT3-ITD activating mutation, which render its proliferation FLT3-ITD dependent. Inhibition of FLT3 kinase activity will cause reduced growth and/or cell death. […] Cells were allowed to expand until reaching saturation at which point they were subcultured or harvested for assay use.
(§4) M-NFS-60, Kasumi-1, MV4-11 and THP-1 cells were seeded into 96-well plates at 2000, 64000, 6500, and 5000 cells/well, respectively, and incubated at 37° C., 5% CO2 overnight. Then, these seeded cells were treated with increasing concentrations of the test compounds and incubated for another 72 hours. At the end of the incubation, CellTiter96® AQueous One Solution Reagent (Promega) was added and incubated for 4 hours. Cell viability was determined by measuring absorbance at 490 nm using EMax® microplate reader (Molecular Devices).

[2] = test system: Kasumi-1 human acute myeloid leukemia cell with c-KIT N822K activating mutation; test: Kasumi-1 cell proliferation assay (CellTiter-96); format: cell-based; conditions: Cytotoxicity, Kasumi-1 cells, 72 hours
Method: as §2
as §3, with “Kasumi” for “MV4-11”, “c-KIT” for “FLT3”, “N822K c-KIT” for “FLT3-ITD”, “thus the cell” for “which render its”, “relied on c-KIT signal.” for “FLT3-ITD dependent.”
as §4

[3] = test system: CSF-1-dependent M-NFS-60 mouse myeloid leukemia cell; test: M-NFS-60 cell proliferation assay (CellTiter-96); format: cell-based; conditions: Cytotoxicity, M-NFS-60 cells, 72 hours
Method: as §2
The compounds disclosed herein were tested in M-NFS-60 cell proliferation assay to determine their cellular potency against CSF-1R. […] Inhibition of CSF-1R kinase activity will cause reduced growth and/or cell death. […] Cells were allowed to expand until reaching saturation at which point they were subcultured or harvested for assay use.
as §4

PDGFRβ kinase = PDGFRβ kinase (Homo sapiens (Human), UniProt P09619); test: PDGFRβ kinase assay (radiometric); format: biochemical; conditions: bound
Method: (§5) Inhibition of PDGFRβ kinase activity by a test compound disclosed herein was estimated by radiometric assay. Standard assay conditions were 10 ng of recombinant PDGFRβ (SignalChem) with 2 μg of substrate Poly-(Glu 4:Tyr 1) (sigma) in the assay buffer in kinase reaction buffer (10 mM MOPS pH 7.0, 0.21 mM EDTA, 0.5% glycerol, 0.001% Brij-35, 0.01 2-mercaptoehtanol, 1 mg/ml BSA, 10 mM MgCl2, 10 mM MnCl2, 10 μM ATP, 0.1 μCi per well [^33P]-ATP), in the presence of test compound (diluted in final concentration of 4% DMSO) or DMSO control, with a final volume of 25 μl for 60 minutes at 30° C. The reaction was stopped by adding 5 μl of 3% phosphoric acid solution. Total reaction solution was then harvested onto a filter plate (UniFilter-96 GF/B, PerkinElmer), and washed 20 times for 5 min with dH2O. 30 μl of MicroScint™-20 Cocktail (PerkinElmer) was added to dried plate. The plate was sealed and counted using a TopCount scintillation detector (PerkinElmer). […] The IC50 values of quinoxaline compounds of this invention against PDGFRβ kinase were determined using the GraphPad Prism 5 software.
as §1

CSF-1R kinase = CSF-1R kinase (Homo sapiens (Human), UniProt P07333); test: CSF-1R kinase assay (AlphaScreen); format: biochemical
Method: Inhibition of CSF-1R kinase activity by a test compound disclosed herein was estimated by AlphaScreen (PerkinElmer). […] Reactions were incubated at 30° C. for 45 min and stopped by adding 5 μL of 50 mM EDTA. Analysis of resulting product using an AlphaScreen kit, and counted with Enspire Alpha (PerkinElmer). […] The IC50 values of quinoxaline compounds of this invention against CSF-1R kinase were determined using the GraphPad Prism 5 software.

[4] = test system: THP-1 human acute monocytic leukemia cell harboring NRAS G12D mutation; test: THP-1 cell proliferation assay (counter screen, CellTiter-96); format: cell-based; conditions: Cytotoxicity, THP-1 cells (counter screen), 72 hours
Method: as §2
THP-1 human acute monocytic leukemia cells harbor NRAS G12D mutation, which renders cell proliferate independently of class III RTKs signal. […] Cells were allowed to expand until reaching saturation at which point they were subcultured or harvested for assay use.
as §4

c-KIT kinase = c-KIT kinase (Homo sapiens (Human), UniProt P10721); test: c-KIT kinase assay (radiometric); format: biochemical
Method: as §5, with “of c-KIT” for “of PDGFRβ”, “were 20” for “were 10”, “recombinant c-Kit” for “recombinant PDGFRβ”, “well [^33P]-ATP,” for “well [^33P]-ATP),”, “against c-KIT” for “against PDGFRβ”
as §1

FLT3 kinase, sequence (P36888 27-993): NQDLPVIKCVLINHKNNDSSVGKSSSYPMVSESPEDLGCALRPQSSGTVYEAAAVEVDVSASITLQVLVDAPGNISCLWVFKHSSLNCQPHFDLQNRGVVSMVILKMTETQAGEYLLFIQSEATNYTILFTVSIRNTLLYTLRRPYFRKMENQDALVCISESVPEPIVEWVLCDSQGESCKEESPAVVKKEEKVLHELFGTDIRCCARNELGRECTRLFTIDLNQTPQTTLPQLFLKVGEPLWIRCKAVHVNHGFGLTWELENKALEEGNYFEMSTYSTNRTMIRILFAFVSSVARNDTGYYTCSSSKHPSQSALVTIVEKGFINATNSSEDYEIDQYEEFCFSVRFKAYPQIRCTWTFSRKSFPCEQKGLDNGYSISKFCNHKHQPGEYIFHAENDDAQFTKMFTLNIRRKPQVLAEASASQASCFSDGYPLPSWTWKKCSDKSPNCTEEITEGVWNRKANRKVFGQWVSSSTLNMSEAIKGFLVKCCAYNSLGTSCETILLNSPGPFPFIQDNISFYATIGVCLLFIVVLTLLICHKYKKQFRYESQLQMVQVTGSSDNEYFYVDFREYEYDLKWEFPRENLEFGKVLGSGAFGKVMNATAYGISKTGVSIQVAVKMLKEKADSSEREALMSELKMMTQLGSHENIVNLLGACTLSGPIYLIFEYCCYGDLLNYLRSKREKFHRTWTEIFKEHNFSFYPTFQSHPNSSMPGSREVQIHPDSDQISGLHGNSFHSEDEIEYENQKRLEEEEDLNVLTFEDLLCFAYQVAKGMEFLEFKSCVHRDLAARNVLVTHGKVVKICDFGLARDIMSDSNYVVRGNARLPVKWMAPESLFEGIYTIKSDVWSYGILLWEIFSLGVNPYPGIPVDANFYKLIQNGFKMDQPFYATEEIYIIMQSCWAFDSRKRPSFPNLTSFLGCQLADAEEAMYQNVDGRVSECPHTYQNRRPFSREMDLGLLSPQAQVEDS
c-KIT kinase, sequence (P10721 26-976): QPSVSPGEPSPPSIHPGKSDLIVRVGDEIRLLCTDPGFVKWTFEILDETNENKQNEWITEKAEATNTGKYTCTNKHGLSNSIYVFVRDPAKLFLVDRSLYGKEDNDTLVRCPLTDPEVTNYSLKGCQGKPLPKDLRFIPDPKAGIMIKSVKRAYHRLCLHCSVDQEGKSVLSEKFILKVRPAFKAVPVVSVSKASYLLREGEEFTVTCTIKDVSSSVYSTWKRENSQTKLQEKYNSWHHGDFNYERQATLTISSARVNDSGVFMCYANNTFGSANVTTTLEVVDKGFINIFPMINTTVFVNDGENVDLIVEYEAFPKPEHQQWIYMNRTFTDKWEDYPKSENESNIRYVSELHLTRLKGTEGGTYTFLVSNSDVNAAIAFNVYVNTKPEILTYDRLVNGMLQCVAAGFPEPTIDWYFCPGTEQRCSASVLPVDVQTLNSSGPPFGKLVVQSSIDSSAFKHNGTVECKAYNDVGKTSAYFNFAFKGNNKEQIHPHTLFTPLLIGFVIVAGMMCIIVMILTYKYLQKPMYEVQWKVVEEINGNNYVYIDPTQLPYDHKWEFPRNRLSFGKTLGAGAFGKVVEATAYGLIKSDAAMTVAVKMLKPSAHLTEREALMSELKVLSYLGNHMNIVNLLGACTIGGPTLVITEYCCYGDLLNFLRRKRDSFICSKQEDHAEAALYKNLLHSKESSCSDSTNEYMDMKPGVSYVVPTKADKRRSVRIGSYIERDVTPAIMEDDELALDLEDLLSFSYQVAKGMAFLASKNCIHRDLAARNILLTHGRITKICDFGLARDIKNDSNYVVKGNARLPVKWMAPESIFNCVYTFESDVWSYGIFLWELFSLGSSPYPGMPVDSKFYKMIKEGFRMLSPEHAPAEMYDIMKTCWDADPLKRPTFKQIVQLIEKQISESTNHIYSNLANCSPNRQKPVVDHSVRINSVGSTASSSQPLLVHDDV
CSF-1R kinase, sequence (P07333 20-972): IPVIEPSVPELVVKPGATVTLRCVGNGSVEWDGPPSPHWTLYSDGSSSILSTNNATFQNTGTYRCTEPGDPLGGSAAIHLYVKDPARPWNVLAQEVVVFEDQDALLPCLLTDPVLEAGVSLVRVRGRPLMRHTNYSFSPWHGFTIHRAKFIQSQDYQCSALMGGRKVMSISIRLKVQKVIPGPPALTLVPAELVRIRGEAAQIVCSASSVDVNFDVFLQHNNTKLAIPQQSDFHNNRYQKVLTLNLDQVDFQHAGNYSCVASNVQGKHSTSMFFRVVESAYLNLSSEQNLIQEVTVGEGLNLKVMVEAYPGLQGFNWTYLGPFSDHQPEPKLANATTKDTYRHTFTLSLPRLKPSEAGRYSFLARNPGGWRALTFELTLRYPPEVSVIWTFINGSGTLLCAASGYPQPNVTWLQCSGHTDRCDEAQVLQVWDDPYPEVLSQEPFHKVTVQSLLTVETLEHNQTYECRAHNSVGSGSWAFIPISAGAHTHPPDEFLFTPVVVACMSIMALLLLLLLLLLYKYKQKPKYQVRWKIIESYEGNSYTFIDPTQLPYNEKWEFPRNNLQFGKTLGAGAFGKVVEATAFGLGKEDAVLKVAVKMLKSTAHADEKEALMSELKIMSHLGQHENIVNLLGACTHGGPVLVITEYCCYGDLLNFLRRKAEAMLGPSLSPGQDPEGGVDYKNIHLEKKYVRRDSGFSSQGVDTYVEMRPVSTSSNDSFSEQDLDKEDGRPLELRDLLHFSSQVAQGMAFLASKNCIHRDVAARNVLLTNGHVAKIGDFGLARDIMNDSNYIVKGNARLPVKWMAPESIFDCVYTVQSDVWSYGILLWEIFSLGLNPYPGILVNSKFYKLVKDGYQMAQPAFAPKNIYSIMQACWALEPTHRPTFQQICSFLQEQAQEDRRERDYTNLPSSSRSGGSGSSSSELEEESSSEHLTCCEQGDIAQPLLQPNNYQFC
PDGFRβ kinase, sequence (P09619 33-1106): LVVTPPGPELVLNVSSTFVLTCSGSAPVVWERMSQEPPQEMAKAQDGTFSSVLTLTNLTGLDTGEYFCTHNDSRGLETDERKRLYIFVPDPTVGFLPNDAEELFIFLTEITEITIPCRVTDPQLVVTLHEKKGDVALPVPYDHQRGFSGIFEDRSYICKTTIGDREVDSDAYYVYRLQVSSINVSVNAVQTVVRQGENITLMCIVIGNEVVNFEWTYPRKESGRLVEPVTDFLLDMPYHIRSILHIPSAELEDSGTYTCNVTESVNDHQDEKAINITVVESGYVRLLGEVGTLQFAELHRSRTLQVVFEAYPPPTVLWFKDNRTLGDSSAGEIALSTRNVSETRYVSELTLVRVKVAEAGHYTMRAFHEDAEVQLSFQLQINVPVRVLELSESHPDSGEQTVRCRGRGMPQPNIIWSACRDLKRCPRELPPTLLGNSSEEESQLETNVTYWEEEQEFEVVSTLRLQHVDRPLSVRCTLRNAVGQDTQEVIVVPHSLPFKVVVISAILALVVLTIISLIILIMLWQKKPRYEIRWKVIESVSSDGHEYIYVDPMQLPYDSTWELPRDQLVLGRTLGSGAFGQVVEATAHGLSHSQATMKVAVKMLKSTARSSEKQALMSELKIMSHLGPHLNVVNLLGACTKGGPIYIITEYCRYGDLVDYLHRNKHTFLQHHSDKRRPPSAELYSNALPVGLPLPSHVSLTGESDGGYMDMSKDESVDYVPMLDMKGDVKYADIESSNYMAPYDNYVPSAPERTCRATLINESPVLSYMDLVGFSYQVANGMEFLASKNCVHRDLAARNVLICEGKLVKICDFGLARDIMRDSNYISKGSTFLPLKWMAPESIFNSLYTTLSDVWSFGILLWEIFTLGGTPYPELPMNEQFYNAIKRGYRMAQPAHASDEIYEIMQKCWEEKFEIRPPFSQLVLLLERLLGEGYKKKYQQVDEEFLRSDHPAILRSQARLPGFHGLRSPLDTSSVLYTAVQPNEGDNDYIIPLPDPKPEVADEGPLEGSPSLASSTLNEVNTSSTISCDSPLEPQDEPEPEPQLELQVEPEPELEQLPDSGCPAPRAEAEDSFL

SMILES | IC50 (FLT3 kinase; bound) [nM] | IC50 (PDGFRβ kinase) [nM] | IC50 (CSF-1R kinase; bound) [nM] | IC50 (c-KIT kinase; class symbol) [nM] | IC50 (CSF-1R kinase; class symbol) [nM] | IC50 [1] [nM] | IC50 [2] [nM] | IC50 [3] [nM] | IC50 [4] [nM] | IC50 (c-KIT kinase; bound) [nM] | IC50 (FLT3 kinase; class symbol) [nM]
COc1ccc(CNc2ccc(Nc3ccc4ncc(N5CCOCC5)nc4c3C#N)cc2OC)cc1 [Example 39, 6-((3-methoxy-4-((4-methoxybenzyl)amino)phenyl)amino)-3-morpholinoquinoxaline-5-carbonitrile] | > 1000 | > 1000 | > 1000 | 100 to 300 | – | 1000 to 10000 | 300 to 1000 | > 10000 | > 10000 | – | –
CCOc1ccc(COc2ccc(Nc3ccc4ncc(OC)nc4c3C#N)cc2OC)cc1 [Example 20, 6-((4-((4-ethoxybenzyl)oxy)-3-methoxyphenyl)amino)-3-methoxyquinoxaline-5-carbonitrile] | > 1000 | > 1000 | – | < 100 | 300 to 1000 | > 10000 | 1000 to 10000 | > 10000 | > 10000 | – | –
COc1cc(Nc2ccc3ncc(N4CCOCC4)nc3c2C#N)ccc1OCc1nccn1C [Example 48, 6-((3-methoxy-4-((1-methyl-1H-imidazol-2-yl)methoxy)phenyl)amino)-3-morpholinoquinoxaline-5-carbonitrile] | > 1000 | > 1000 | > 1000 | 300 to 1000 | – | > 10000 | 1000 to 10000 | > 10000 | > 10000 | – | –
COc1ccc(COc2ccc(Nc3ccc4ncc(OC(C)C)nc4c3C#N)cc2OC)cn1 [Example 119, 3-isopropoxy-6-((3-methoxy-4-((6-methoxypyridin-3-yl)methoxy)phenyl)amino)quinoxaline-5-carbonitrile] | – | > 1000 | – | – | 100 to 300 | 1000 to 10000 | > 10000 | 1000 to 10000 | > 10000 | > 1000 | 100 to 300
COc1cc(Nc2ccc3ncc(N4CCOCC4)nc3c2C#N)ccc1OCC1CC1 [Example 36, 6-((4-(cyclopropylmethoxy)-3-methoxyphenyl)amino)-3-morpholinoquinoxaline-5-carbonitrile] | > 1000 | > 1000 | – | 100 to 300 | 300 to 1000 | 1000 to 10000 | 300 to 1000 | > 10000 | > 10000 | – | –
COc1cnc2ccc(Nc3ccc(NCc4ccc(C(F)(F)F)cc4)nc3)c(C#N)c2n1 [Example 4, 3-methoxy-6-((6-((4-(trifluoromethyl)benzyl)amino)pyridin-3-yl)amino)quinoxaline-5-carbonitrile] | > 1000 | > 1000 | > 1000 | 300 to 1000 | – | 1000 to 10000 | 1000 to 10000 | > 10000 | > 10000 | – | –

Second part, led by results:

IC50 (FLT3 kinase; bound) [nM] | IC50 (PDGFRβ kinase) [nM] | IC50 (CSF-1R kinase; bound) [nM] | IC50 (c-KIT kinase; class symbol) [nM] | IC50 (CSF-1R kinase; class symbol) [nM] | SMILES | IC50 [1] [nM] | IC50 [2] [nM] | IC50 [3] [nM] | IC50 [4] [nM] | IC50 (c-KIT kinase; bound) [nM] | IC50 (FLT3 kinase; class symbol) [nM]
> 1000 | > 1000 | – | – | < 100 | COc1ccc(COc2ccc(Nc3ccc4ncc(N5CCOCC5)nc4c3C#N)cc2Cl)cc1 [Example 63, 6-((3-chloro-4-((4-methoxybenzyl)oxy)phenyl)amino)-3-morpholinoquinoxaline-5-carbonitrile] | > 10000 | > 10000 | 1000 to 10000 | > 10000 | > 1000 | –
> 1000 | > 1000 | – | < 100 | < 100 | COc1cc(Nc2ccc3ncc(N4CCOCC4)nc3c2C#N)ccc1OCc1ccc(N(C)C)nc1 [Example 104, 6-((4-((6-(dimethylamino)pyridin-3-yl)methoxy)-3-methoxyphenyl)amino)-3-morpholinoquinoxaline-5-carbonitrile] | 1000 to 10000 | 1000 to 10000 | 1000 to 10000 | > 10000 | – | –
> 1000 | > 1000 | – | < 100 | < 100 | COc1cc(Nc2ccc3ncc(N4CCOCC4)nc3c2C#N)ccc1OCc1cc(C)on1 [Example 61, 6-((3-methoxy-4-((5-methylisoxazol-3-yl)methoxy)phenyl)amino)-3-morpholinoquinoxaline-5-carbonitrile] | > 10000 | 300 to 1000 | > 10000 | > 10000 | – | –
> 1000 | > 1000 | – | 100 to 300 | 100 to 300 | COc1cc(Nc2ccc3ncc(N4CCOCC4)nc3c2C#N)ccc1OCc1ccoc1 [Example 121, 6-((4-(furan-3-ylmethoxy)-3-methoxyphenyl)amino)-3-morpholinoquinoxaline-5-carbonitrile] | 1000 to 10000 | 300 to 1000 | 1000 to 10000 | > 10000 | – | –
> 1000 | > 1000 | > 1000 | 300 to 1000 | – | COc1cc(Nc2ccc3ncc(N4CCOCC4)nc3c2C#N)ccc1OCc1cncn1C [Example 55, 6-((3-methoxy-4-((1-methyl-1H-imidazol-5-yl)methoxy)phenyl)amino)-3-morpholinoquinoxaline-5-carbonitrile] | – | – | – | – | – | –
